# Data published in ChEMBL document CHEMBL1147248, “A new acylated oleanane triterpenoid from Couepia polyandra that inhibits the lyase activity of DNA polymerase beta” (J Nat Prod, 2003).
# Target: DNA polymerase beta (Homo sapiens, UniProt P06746)
# Experiment: Inhibition of DNA polymerase beta lyase activity by deoxyribose phosphate excision assay
row,Compound,IC50 [µM]
1,CC(=O)OC[C@@]1(C)[C@@H]2CC[C@]3(C)[C@H](CC=C4[C@@H]5CC(C)(C)CC[C@]5(C(=O)O)[C@@H](OC(C)=O)C[C@]43C)[C@@]2(C)CC[C@@H]1OC(C)=O,13
2,CC[C@H](CC[C@@H](C)[C@H]1CC[C@H]2[C@@H]3CC=C4C[C@@H](O)CC[C@]4(C)[C@H]3CC[C@]12C)C(C)C [BETA-SITOSTEROL],26.3
3,CC1(C)CC[C@]2(C(=O)O)CC[C@]3(C)C(=CC[C@@H]4[C@@]5(C)CC[C@H](O)C(C)(C)[C@@H]5CC[C@]43C)[C@@H]2C1 [OLEANOLIC_ACID],8.8
4,CC[C@H](/C=C/[C@@H](C)[C@H]1CC[C@H]2[C@@H]3CC=C4C[C@@H](O)CC[C@]4(C)[C@H]3CC[C@]12C)C(C)C [STIGMASTEROL],43.4
